Calls of active or inactive are those of the source. The rule behind the calls is not given here.
How the values were obtained:
[1] = target: T1, Muscarinic acetylcholine receptor M1 (Homo sapiens, UniProt P11229)
T1 sequence (P11229 whole entry): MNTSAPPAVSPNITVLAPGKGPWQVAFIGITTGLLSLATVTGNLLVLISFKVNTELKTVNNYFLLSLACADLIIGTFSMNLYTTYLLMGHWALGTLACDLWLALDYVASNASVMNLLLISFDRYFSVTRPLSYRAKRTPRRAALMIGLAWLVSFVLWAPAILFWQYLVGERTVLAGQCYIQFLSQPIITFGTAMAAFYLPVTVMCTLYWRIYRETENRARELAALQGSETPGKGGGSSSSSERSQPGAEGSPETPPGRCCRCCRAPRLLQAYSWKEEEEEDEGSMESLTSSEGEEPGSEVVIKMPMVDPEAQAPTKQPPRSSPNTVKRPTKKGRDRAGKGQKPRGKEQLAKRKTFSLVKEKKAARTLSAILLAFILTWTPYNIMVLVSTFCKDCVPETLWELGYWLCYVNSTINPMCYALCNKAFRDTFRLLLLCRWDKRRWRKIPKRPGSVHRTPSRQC
Description: Partial agonist activity at human muscarinic M1 acetylcholine receptor expressed in CHO cells assessed as increase in IP1 accumulation incubated for 30 mins by FRET based HTRF assay

[2] = target: T1, Muscarinic acetylcholine receptor M1; experiment: biochemical
[3] = target: T2, Muscarinic acetylcholine receptor M1 (Homo sapiens) (UniProt P11229); experiment: Partial agonist activity at human muscarinic M1 acetylcholine receptor expressed in CHO cells assessed as increase in IP1 accumulation at 10 uM incubated for 30 mins in presence of 1 uM Gq protein inhibitor UBO-QIC by FRET based HTRF assay; assay type: functional, cell-based
T2 sequence (whole entry): T1 sequence (P11229 whole entry)

[4] = target: T2, Muscarinic acetylcholine receptor M1 (Homo sapiens); experiment: Partial agonist activity at human muscarinic M1 acetylcholine receptor expressed in CHO cells assessed as increase in IP1 accumulation at 10 uM incubated for 30 mins by FRET based HTRF assay relative to 100 uM acetylcholine; assay type: functional, cell-based
[5] = target: T2, Muscarinic acetylcholine receptor M1 (Homo sapiens); experiment: Partial agonist activity at human muscarinic M1 acetylcholine receptor expressed in CHO cells assessed as increase in IP1 accumulation at 10 uM incubated for 30 mins in presence of 100 ng/ml Gi protein inhibitor PTX by FRET based HTRF assay; assay type: functional, cell-based
[6] = target: T2, Muscarinic acetylcholine receptor M1 (Homo sapiens); experiment: Partial agonist activity at human muscarinic M1 acetylcholine receptor expressed in CHO cells assessed as increase in IP1 accumulation at 1 uM incubated for 30 mins by FRET based HTRF assay relative to 100 uM acetylcholine; assay type: functional, cell-based
[7] = target: T2, Muscarinic acetylcholine receptor M1 (Homo sapiens); experiment: Displacement of [3H]NMS from human muscarinic M1 acetylcholine receptor expressed in CHO cell membranes at 1 uM by radioligand binding assay
[8] = target: T2, Muscarinic acetylcholine receptor M1 (Homo sapiens); experiment: Partial agonist activity at human muscarinic M1 acetylcholine receptor expressed in CHO cells assessed as increase in IP1 accumulation at 10 uM incubated for 30 mins by FRET based HTRF assay; assay type: functional, cell-based
[9] = target: T2, Muscarinic acetylcholine receptor M1 (Homo sapiens); experiment: Agonist activity at human muscarinic M1 acetylcholine receptor expressed in CHO cells assessed as increase in IP1 accumulation at 1 uM incubated for 30 mins by FRET based HTRF assay; assay type: functional, cell-based
[10] = target: T2, Muscarinic acetylcholine receptor M1 (Homo sapiens); experiment: Allosteric inhibition of [3H]NMS dissociation from human muscarinic M1 acetylcholine receptor expressed in CHO cell membranes assessed as half life of dissociation by radioligand binding assay
[11] = target: T2, Muscarinic acetylcholine receptor M1 (Homo sapiens); experiment: Allosteric inhibition of [3H]NMS dissociation from human muscarinic M1 acetylcholine receptor expressed in CHO cell membranes assessed as […] in half life of dissociation by radioligand binding assay
[12] = target: T2, Muscarinic acetylcholine receptor M1 (Homo sapiens); experiment: Allosteric inhibition of [3H]NMS dissociation rate constant k_1 from human muscarinic M1 acetylcholine receptor expressed in CHO cell membranes by radioligand binding assay; conditions: concentration not given here
[13] = target: T2, Muscarinic acetylcholine receptor M1 (Homo sapiens); experiment: Allosteric inhibition of [3H]NMS dissociation from human muscarinic M1 acetylcholine receptor expressed in CHO cell membranes by radioligand binding assay
[14] = target: T2, Muscarinic acetylcholine receptor M1 (Homo sapiens); experiment: Modulator activity at human muscarinic M1 acetylcholine receptor expressed in CHO cell membranes assessed as induction of left shift of acetylcholine-induced inhibition of [3H]NMS binding by radioligand binding assay
[15] = target: T2, Muscarinic acetylcholine receptor M1 (Homo sapiens); experiment: Modulator activity at human muscarinic M1 acetylcholine receptor expressed in CHO cell membranes assessed as reduction in pIC50 for acetylcholine-induced inhibition of [3H]NMS binding by radioligand binding assay
[16] = target: T2, Muscarinic acetylcholine receptor M1 (Homo sapiens); experiment: Displacement of [3H]NMS from human muscarinic M1 acetylcholine receptor expressed in CHO cell membranes by radioligand binding assay
[17] = target: T2, Muscarinic acetylcholine receptor M1 (Homo sapiens); experiment: Partial agonist activity at human muscarinic M1 acetylcholine receptor expressed in CHO cells assessed as increase in IP1 accumulation at 0.3 uM incubated for 30 mins by FRET based HTRF assay relative to 100 uM acetylcholine; assay type: functional, cell-based
[18] = target: T2, Muscarinic acetylcholine receptor M1 (Homo sapiens); conditions: CHO
Description: Displacement of [3H]NMS from human muscarinic M1 acetylcholine receptor expressed in CHO cell membranes assessed as equilibrium dissociation constant of dynamic ligand for inactive receptor binding pose by radioligand binding assay

[19] = target: T2, Muscarinic acetylcholine receptor M1 (Homo sapiens); conditions: CHO; remark: listed apart in the source
Description: Displacement of [3H]NMS from human muscarinic M1 acetylcholine receptor expressed in CHO cell membranes assessed as equilibrium dissociation constant of dynamic ligand for active receptor binding pose by radioligand binding assay

[20] = target: T2, Muscarinic acetylcholine receptor M1 (Homo sapiens); experiment: Partial agonist activity at human muscarinic M1 acetylcholine receptor expressed in CHO cells assessed as increase in IP1 accumulation at 10 uM incubated for 30 mins by FRET based HTRF assay in presence of 1 uM atropine; assay type: functional, cell-based

| SMILES | EC50 [1] [nM] | Kd [2] [nM] | Activity [3] | Activity [8] | Activity [9] | further results |
| --- | --- | --- | --- | --- | --- | --- |
| C[N+](C)(CC#CCOC1=NOCC1)CCCCNC(=O)c1cn(Cc2ccccc2)c2cc(Cl)c(F)cc2c1=O | 32.4 | 72.4 | inactive |  |  |  |
| CC[C@@H]1SC2(CCNCC2)N(CCCCCCCCOc2ccc3cc(Cn4cc(C(=O)O)c(=O)c5cccc(F)c54)ccc3c2)C1=O | 60.3 | 166 |  |  |  | Emax [4]: 61%; Activity [5]: Active |
| CCCCCCCCOc1ccc2cc(Cn3cc(C(=O)O)c(=O)c4cccc(F)c43)ccc2c1 |  |  |  |  |  | Emax [6]: 1%; Activity [5]: Active |
| O=C(NCCCCCCBr)c1cn(Cc2ccccc2)c2cc(Cl)c(F)cc2c1=O |  |  |  | inactive | inactive | inhibition [7]: Active |
| CCCCCCCCN1CCC(n2c(=O)[nH]c3ccccc32)CC1 | 537 |  |  |  |  | T1/2 [10]: 8.9 min; fold change (FC) [11]: 3; Activity [5]: Active; inhibition [12]: 36%; pEC0.5 [13]: 5.94 |
| C[N+](C)(CC#CCOC1=NOCC1)CCCCCCNC(=O)c1cn(Cc2ccccc2)c2ccc(F)cc2c1=O | 58.9 | 151 | inactive |  |  |  |
| O=C(NCCCCBr)c1cn(Cc2ccccc2)c2c(F)cccc2c1=O |  |  |  | inactive | inactive | inhibition [14]: inactive; inhibition [15]: Active; inhibition [12]: 35%; Imax [16]: 3 µM; pEC0.5 [13]: 5.9 |
| C[N+](C)(CC#CCOC1=NOCC1)CCCCCCNC(=O)c1cn(Cc2ccccc2)c2cc(Cl)c(F)cc2c1=O | 302 | 851 | inactive |  |  |  |
| C[N+](C)(C)CC#CCOC1=NOCC1 | 2.04 | 2140 |  |  |  |  |
| COc1ccc(Cn2cc(C(=O)O)c(=O)c3ccccc32)cc1 |  |  |  | Active | inactive |  |
| COc1ccc2cc(Cn3cc(C(=O)O)c(=O)c4cccc(F)c43)ccc2c1 |  |  |  |  |  | Emax [17]: 1%; Activity [5]: Active |
| O=C(NCCCCCCBr)c1cn(Cc2ccccc2)c2cc(Br)ccc2c1=O |  |  |  | inactive | inactive | inhibition [7]: Active |
| C[N+](C)(CC#CCOC1=NOCC1)CCCCCCNC(=O)c1cn(Cc2ccccc2)c2c(F)cccc2c1=O | 178 | 490 | inactive |  |  | pKb [18]: 6.3; inhibition [14]: inactive; inhibition [15]: Active; inhibition [12]: 15%; pEC0.5 [13]: 6.1; pKA [19]: 6.98 |
| O=C(NCCCCBr)c1cn(Cc2ccccc2)c2cc(Cl)c(F)cc2c1=O |  |  |  | inactive | inactive |  |
| C[N+](C)(CC#CCOC1=NOCC1)CCCCNC(=O)c1cn(Cc2ccccc2)c2c(F)cccc2c1=O | 57.5 | 151 | inactive |  |  | pKb [18]: 6.92; inhibition [14]: inactive; inhibition [15]: Active; inhibition [12]: 18%; pEC0.5 [13]: 6.04; pKA [19]: 6.64 |
| CC[C@@H]1SC2(CCNCC2)N(CCCOc2ccc3cc(Cn4cc(C(=O)O)c(=O)c5cccc(F)c54)ccc3c2)C1=O |  |  |  |  |  | Activity [20]: inactive; Emax [4]: 55%; Activity [5]: Active |
| CC[C@@H]1SC2(CCNCC2)NC1=O |  |  |  |  |  | Emax [4]: 12% |
| O=C(NCCCCCCBr)c1cn(Cc2ccccc2)c2c(F)cccc2c1=O |  |  |  | inactive | inactive | inhibition [14]: inactive; inhibition [15]: Active; inhibition [12]: 47%; Imax [16]: 10 µM; pEC0.5 [13]: 6.15 |
| O=C(NCCCCBr)c1cn(Cc2ccccc2)c2cc(Br)ccc2c1=O |  |  |  | inactive | inactive |  |
| C[N+](C)(CC#CCOC1=NOCC1)CCCCCCNC(=O)c1cn(Cc2ccccc2)c2cc(Br)ccc2c1=O | 15.5 | 74.1 | inactive |  |  |  |
| C[N+](C)(CC#CCOC1=NOCC1)CCCCNC(=O)c1cn(Cc2ccccc2)c2cc(Br)ccc2c1=O | 63.1 | 141 | inactive |  |  |  |
